According to paper PMC10914734 (Signal Transduction and Targeted Therapy, 2024):
Like-named read-outs stand apart in the source and are kept apart here.

Legend:
Human Trypsin = assay: Protease panel, trypsin inhibition; format: biochemical; details: at a concentration of 20 μM
Pharmacokinetics in dogs = format: in vivo; details: for AUC(0-t) / clearance / half-life / AUC(0-inf) / MRT inf / Cmax / Tmax / bioavailability: male, Beagle, dog, plasma; for AUC(0-inf): read-out: AUCINF_obs; for MRT inf: read-out: MRTINF_obs
Experimental: Three groups of male Beagle dogs weighing 9 to 12 kg (2 animals per group) were intravenously (1 mg/kg), subcutaneously (1 mg/kg) and orally (5 mg/kg) dosed 14a in a vehicle consisting of 5% dimethyl sulfoxide, 7.5% Kolliphor HS 15 and 87.5% saline (volume ratio). Serial blood samples were collected at 0.083, 0.25, 0.75, 2.0, 4.0, 6.0, 8.0 and 24.0 h for the intravenous and […] groups and 0.25, 0.5, 1.0, 2.0, 4.0, 6.0, 8.0 and 24.0 h for the oral group after dose administration. Two groups of male Beagle dogs weighing 9 to 12 kg (3 animals per group) were intravenously (1 mg/kg) and subcutaneously (1 mg/kg) dosed 14b in a vehicle consisting of 5% dimethyl sulfoxide, 5% ethanol, 40% polyethylene glycol 400 and 50% saline (volume ratio). Serial blood samples were collected at 0.083, 0.25, 0.50, 1.00, 2.00, 4.00, 8.00 and 24.0 h after dose administration. A group of 3 male Beagle dogs weighing 9 to 12 kg was administered an oral dose of 5 mg/kg 14b in a vehicle consisting of 5% dimethyl sulfoxide and 95% hydroxypropyl methyl cellulose solution (0.5% hydroxypropyl methyl cellulose in deionized water in weight ratio) (volume ratio). Serial blood samples were collected at 0.25, 0.50, 1.00, 2.00, 4.00, 8.00 and 24.0 h after dose administration. All blood samples were obtained by centrifugation and stored at -20 °C until analysis.
Plasma compound concentrations were obtained through HPLC-MS/MS, and the pharmacokinetics parameters were analyzed by Phoenix WinNonlin 7.0. The following parameters were determined: Cmax (maximal concentration of drug in plasma), AUClast or AUCINF_obs (area under the concentration curve from the time of dosing to the last measurable concentration or from the time of dosing to infinity, respectively). Tmax (time of maximum observed concentration), T1/2 (half-life of elimination), MRTINF_obs (mean residence time extrapolated to infinity for a substance administered by indicated dosing using observed last concentration), CL (total body clearance), Vss (volume of distribution at steady state) and F (absolute bioavailability, F = (AUCx × Di.v.)/( AUCi.v. × Dx) × 100%, where x is i.p., s.c. or p.o., and AUC is AUCINF_obs).The pharmacokinetic parameters were analyzed by Phoenix WinNonlin 7.0.

SARS-CoV-2 PsV = format: cell-based; details: 500 nM
[1] = test system: Huh-7, Vero-E6, RD and 293T-ACE2-TMPRSS2 cell lines; assay: Cell Counting Kit-8 (CCK8) cytotoxicity assay; format: cell-based; details: 293T-ACE2-TMPRSS2 cells
Experimental: Cell viability was performed in a 96-well plate with triplicate for each concentration. All compounds were diluted two times with nine gradients starting at 200, 250. or 500 micromoles in maintenance medium. After 48 h incubation, the supernatant was removed, and 10 μL WST-8 (2-(2-methoxy-4-nitrophenyl)-3-(4-nitrophenyl)-5-(2,4-disulfophenyl)-2H-tetrazolium sodium salt) in maintenance medium was added to the cells. After incubation at 37 °C for 2 h, the plates were measured at 450 nm using a spectrophotometer (BioTek), and cell viability was calculated. All compounds were diluted with maintenance medium containing 2%FBS of DMEM.

HCoV-OC43 = assay: Protective effect against HCoV-OC43 infection in newborn mice; format: in vivo
Experimental: We also further assessed the in vivo antiviral activity of compound 14b against HCoV-OC43 infection in a mouse model. In the HCoV-OC43 infection mouse model, we treated newborn mice with 14b at a dose of 5 mg/kg by intraperitoneal injection 24 h after challenge with HCoV-OC43 at 100 TCID50.
Protective effect of 14b against HCoV-OC43 in vivo was assessed as previously reported.[45] All newborn mice were challenged with HCoV-OC43 (100 TCID50) by intranasal administration. For mice in the 14b-treated group, 14b (5 mg/kg) in a proper solution (1% dimethyl sulfoxide, 9% polyethylene glycol 300, and 90% aqueous solution containing 28% (w/v) hydroxypropyl β-cyclodextrin, volume ratio) was given by intraperitoneal injection. Mice in the viral control group were treated with PBS. Body weight and survival rate of these mice were then observed up to the 15th day post-infection.

Structure (SMILES): O=C(NCc1ccccc1)C(=O)[C@H](C[C@@H]1CCCNC1=O)NC(=O)[C@H](Cc1ccc(F)cc1)NC(=O)c1cc2ccccc2o1 [14a, N-((S)-1-(((S)-4-(benzylamino)-3,4-dioxo-1-((S)-2-oxopiperidin-3-yl)butan-2-yl)amino)-3-(4-fluorophenyl)-1-oxopropan-2-yl)benzofuran-2-carboxamide]
- Inhibition rate, Human Trypsin (Human Trypsin): 3 ± 1%
- Vss_obs (Pharmacokinetics in dogs; i.v. (1 mg/kg)): 1050 mL/kg
- AUC(0-t) (Pharmacokinetics in dogs; iv, i.v. (1 mg/kg)): 732 ng·h/mL
- clearance (Pharmacokinetics in dogs; iv, i.v. (1 mg/kg)): 24.4 mL/min/kg
- half-life (Pharmacokinetics in dogs; iv, i.v. (1 mg/kg)): 62.4 min
- AUC(0-inf) (Pharmacokinetics in dogs; iv, i.v. (1 mg/kg)): 735 ng·h/mL
- MRT inf (Pharmacokinetics in dogs; iv, i.v. (1 mg/kg)): 0.74 h
- AUC(0-t) (Pharmacokinetics in dogs; po, p.o. (5 mg/kg)): 351 ng·h/mL
- Cmax (Pharmacokinetics in dogs; po, p.o. (5 mg/kg)): 154 ng/mL
- Tmax (Pharmacokinetics in dogs; po, p.o. (5 mg/kg)): 45 min
- bioavailability (Pharmacokinetics in dogs; po, p.o. (5 mg/kg)): 10%
- half-life (Pharmacokinetics in dogs; po, p.o. (5 mg/kg)): 79.8 min
- AUC(0-inf) (Pharmacokinetics in dogs; po, p.o. (5 mg/kg)): 357 ng·h/mL
- MRT inf (Pharmacokinetics in dogs; po, p.o. (5 mg/kg)): 1.86 h
- AUC(0-t) (Pharmacokinetics in dogs; sc, s.c. (1 mg/kg)): 881 ng·h/mL
- Cmax (Pharmacokinetics in dogs; sc, s.c. (1 mg/kg)): 116 ng/mL
- Tmax (Pharmacokinetics in dogs; sc, s.c. (1 mg/kg)): 30 min
- bioavailability (Pharmacokinetics in dogs; sc, s.c. (1 mg/kg)): 120%
- half-life (Pharmacokinetics in dogs; sc, s.c. (1 mg/kg)): 238 min
- AUC(0-inf) (Pharmacokinetics in dogs; sc, s.c. (1 mg/kg)): 893 ng·h/mL
- MRT inf (Pharmacokinetics in dogs; sc, s.c. (1 mg/kg)): 5.14 h
- Antiviral activity by time of addition (SARS-CoV-2 PsV): lost most of their antiviral activity
- Cytotoxicity [1]: very low or no cytotoxicity

Structure (SMILES): O=C(NCc1ccccc1)C(=O)[C@H](C[C@@H]1CCCNC1=O)NC(=O)[C@H](CC1CCCCC1)NC(=O)c1cc2ccccc2o1 [14b, N-((S)-1-(((S)-4-(benzylamino)-3,4-dioxo-1-((S)-2-oxopiperidin-3-yl)butan-2-yl)amino)-3-cyclohexyl-1-oxopropan-2-yl)benzofuran-2-carboxamide]
- Inhibition rate, Human Trypsin (Human Trypsin): 1 ± 1%
- Vss_obs (Pharmacokinetics in dogs; i.v. (1 mg/kg)): 1590 ± 557 mL/kg
- AUC(0-t) (Pharmacokinetics in dogs; iv, i.v. (1 mg/kg)): 544 ± 148 ng·h/mL
- clearance (Pharmacokinetics in dogs; iv, i.v. (1 mg/kg)): 31.9 ± 7.8 mL/min/kg
- half-life (Pharmacokinetics in dogs; iv, i.v. (1 mg/kg)): 64.2 ± 17.4 min
- AUC(0-inf) (Pharmacokinetics in dogs; iv, i.v. (1 mg/kg)): 546 ± 148 ng·h/mL
- MRT inf (Pharmacokinetics in dogs; iv, i.v. (1 mg/kg)): 0.82 ± 0.11 h
- AUC(0-t) (Pharmacokinetics in dogs; po, p.o. (5 mg/kg)): 271 ± 166 ng·h/mL
- Cmax (Pharmacokinetics in dogs; po, p.o. (5 mg/kg)): 235 ± 173 ng/mL
- Tmax (Pharmacokinetics in dogs; po, p.o. (5 mg/kg)): 34.8 ± 22.8 min
- bioavailability (Pharmacokinetics in dogs; po, p.o. (5 mg/kg)): 10%
- half-life (Pharmacokinetics in dogs; po, p.o. (5 mg/kg)): 120 ± 51 min
- AUC(0-inf) (Pharmacokinetics in dogs; po, p.o. (5 mg/kg)): 283 ng·h/mL
- MRT inf (Pharmacokinetics in dogs; po, p.o. (5 mg/kg)): 2.19 ± 0.86 h
- AUC(0-t) (Pharmacokinetics in dogs; sc, s.c. (1 mg/kg)): 948 ± 46 ng·h/mL
- Cmax (Pharmacokinetics in dogs; sc, s.c. (1 mg/kg)): 151 ± 36 ng/mL
- Tmax (Pharmacokinetics in dogs; sc, s.c. (1 mg/kg)): 125 ± 113 min
- bioavailability (Pharmacokinetics in dogs; sc, s.c. (1 mg/kg)): 178%
- half-life (Pharmacokinetics in dogs; sc, s.c. (1 mg/kg)): 191 ± 94.2 min
- AUC(0-inf) (Pharmacokinetics in dogs; sc, s.c. (1 mg/kg)): 973 ± 54 ng·h/mL
- MRT inf (Pharmacokinetics in dogs; sc, s.c. (1 mg/kg)): 4.69 ± 1.25 h
- Body weight of infected mice (HCoV-OC43; HCoV-OC43 100 TCID50, 5 mg/kg intraperitoneal injection): either mildly decreased or rapidly recovered
- Final survival rate (HCoV-OC43; HCoV-OC43 100 TCID50, 5 mg/kg intraperitoneal injection 24 h after challenge): 60%
- Antiviral activity by time of addition (SARS-CoV-2 PsV): lost most of their antiviral activity
- Cytotoxicity [1]: very low or no cytotoxicity
